Columns and labels:
Format in all cases: in vivo
Bilderdykia convolvulus = assay: Postemergent weed control, greenhouse (Example I)
Method: (§1) In all Examples, the percent kill and control is measured on a scale of 0 percent = no kill and control 100 percent = complete kill and control. Representative compositions of the present invention were evaluated to determine their effectiveness in synergistic postemergent weed control operations. Suspension emulsions containing varying concentrations of the methylheptyl ester of ((4-amino-3,5-dichloro-6-fluoro-2-pyridinyl)oxy)-acetic acid (Compound B) and N-(2,6-dichloro-3-methylphenyl)-5,7-dimethoxy-1,2,4,-triazolo(1,5a)pyrimidine-2-sulfonamide (Compound A), were prepared as follows: A 250 g per litre suspension concentrate of Compound A was prepared by wet-milling the following ingredients, until a particle size distribution with a volume median diameter of about 2μm was obtained. Varying amounts of the resulting suspension concentrate were added to water to provide the desired concentration of Compound A. Similarly, varying amounts of a commercially available emulsifiable concentrate containing 200 g/l (as acid equivalent) of fluroxypyr 1 methylheptyl ester (Trade Mark […]-2) were added, to provide the desired concentration of Compound B. In each of the tests which follow, the composition was applied at a rate of 200 litres per hectare. Accordingly, in each case, the amount of water to which the suspension concentrate of Compound A and the emulsifiable concentrate of Compound B was added was sufficient to provide the desired application rates, when the resulting composition was used at this application rate. Seeds of the weed species Bilderdykia convolvulus, Viola arvensis, Lamium purpureum, Chenopodium album and Fumaria officinalis, and seeds of the crop plant winter wheat variety Avalon, were planted in beds of good agricultural soil and grown in a greenhouse. […] The results are shown in Tables I to V. In the tables which follow, those runs which include only one but not both of Compound A and Compound B are included as controls. Expected control is calculated as 100 -((% control by Compound A) x (% control by Compound B))/(100) [formula] where % control= 100-actual control according to the technique described in Colby, "Calculating Synergistic and Antagonistic Responses of Herbicidal Combinations", Weeds, Volume 15 (1967), pages 20-22 and Colby, "Greenhouse Evaluation of Herbicidal Combinations", Proc. NEWCC, No. 19, pages 312-320. The percent increase over the expected control is calculated as (Actual control)/(Expected Control)x 100 - 100 [formula]

Fumaria officinalis [1] = assay: Postemergent weed control, greenhouse (Example I)
Method: as §1

Viola arvensis [2] = assay: Postemergent weed control, greenhouse (Example I)
Method: as §1

Lamium purpureum [3] = assay: Postemergent weed control, greenhouse (Example I)
Method: as §1

Chenopodium album = assay: Postemergent weed control, greenhouse (Example I)
Method: as §1

Lamium purpureum [4] = assay: Weed control by reduction in fresh weight (Example IV)
Method: (§2) In all Examples, the percent kill and control is measured on a scale of 0 percent = no kill and control 100 percent = complete kill and control. Expected control is calculated as 100 -((% control by Compound A) x (% control by Compound B))/(100) [formula] where % control= 100-actual control according to the technique described in Colby, "Calculating Synergistic and Antagonistic Responses of Herbicidal Combinations", Weeds, Volume 15 (1967), pages 20-22 and Colby, "Greenhouse Evaluation of Herbicidal Combinations", Proc. NEWCC, No. 19, pages 312-320. The percent increase over the expected control is calculated as (Actual control)/(Expected Control)x 100 - 100 [formula] Table I An emulsifiable concentrate of fluroxypyr methyl ester (as compound B) was prepared having the following composition. Varying amounts of this emulsifiable concentrate containing 100 g/l Fluroxypyr methyl ester (as acid equivalent) were added to a suspension concentrate of compound A prepared as in Example I, to provide the desired concentration of Compound B. The resulting formulation was tested against the following weeds, at the growth stage indicated, by the method described above. [table] In each case, the composition was applied ata rate of 200 litres per hectare. The percent of control was assessed by visual percent control (tables VIII to XII) and also by measurement of fresh weight (tables XIII to XVII).

Viola arvensis [5] = assay: Post-emergent weed control by reduction in fresh weight (Examples V, VI and VII)
Method: (§3) In all Examples, the percent kill and control is measured on a scale of 0 percent = no kill and control 100 percent = complete kill and control. Expected control is calculated as 100 -((% control by Compound A) x (% control by Compound B))/(100) [formula] where % control= 100-actual control according to the technique described in Colby, "Calculating Synergistic and Antagonistic Responses of Herbicidal Combinations", Weeds, Volume 15 (1967), pages 20-22 and Colby, "Greenhouse Evaluation of Herbicidal Combinations", Proc. NEWCC, No. 19, pages 312-320. The percent increase over the expected control is calculated as (Actual control)/(Expected Control)x 100 - 100 [formula] Table I A 20% w/w suspension concentrate of fluroxypyr acid in water was prepared by wet milling the ingredients shown in Table XVIII until a particle size distribution with a volume median diameter of about 2µm was obtained. Varying amounts of the resulting suspension concentrate were added to water to provide the desired concentration of fluroxypyr acid. […] Varying amounts of the resulting solutions were further diluted with water to provide the desired concentration of the fluroxypyr salt. Similarly, varying amounts of the suspension concentrate of compound A prepared as in Example 1 were added, to provide the desired concentration of compound A. The formulations resulting from Examples V, VI and VII were evaluated to determine their effectiveness in the post-emergent control of the weeds Viola arvensis, Galium aparine, and Matricaria inodora.

Matricaria inodora = assay: as above
Method: as §3

Galium aparine = assay: Weed control, visual percent control (Example IV)
Method: as §2

Veronica persica = assay: Weed control, visual percent control (Example IV)
Method: as §2

Viola arvensis [6] = assay: Weed control, visual percent control (Example IV)
Method: as §2

Fumaria officinalis [7] = assay: Postemergent weed control, field trials (Example II)
Method: In all Examples, the percent kill and control is measured on a scale of 0 percent = no kill and control 100 percent = complete kill and control. Expected control is calculated as 100 -((% control by Compound A) x (% control by Compound B))/(100) [formula] where % control= 100-actual control according to the technique described in Colby, "Calculating Synergistic and Antagonistic Responses of Herbicidal Combinations", Weeds, Volume 15 (1967), pages 20-22 and Colby, "Greenhouse Evaluation of Herbicidal Combinations", Proc. NEWCC, No. 19, pages 312-320. The percent increase over the expected control is calculated as (Actual control)/(Expected Control)x 100 - 100 [formula] Table I A number of compositions in accordance with the present invention were prepared as in Example I and evaluated in field trials to determine their effectiveness in the postemergent control of the weed Fumaria officinalis growing in the presence of spring barley of the variety Triumph. Seeds of the plants spring barley of the variety Triumph and the weed specie Fumaria officinalis were planted in plots 6 meters x 3 meters composed of calcareous clay loam soil. Two months after planting, the plants were sprayed at a rate of 200 litre/hectare with one of the compositions having an active material control such as to give treatment rates shown in Table VI. […]

With `COc1cc(OC)n2nc(S(=O)(=O)Nc3c(Cl)ccc(C)c3Cl)nc2n1` [Cmpd A, N-(2,6-dichloro-3-methylphenyl)-5,7-dimethoxy-1,2,4,-triazolo(1,5a)pyrimidine-2-sulfonamide] the “Actual Control (%) 32 days after treatment” value (“Actual Control (%) 32 days” for short) (Bilderdykia convolvulus; Cmpd A 6.25 g/ha alone) was 0%, the “Actual Control (%) 32 days” value (Bilderdykia convolvulus; Cmpd A 12.50 g/ha alone) was 45% and the “Actual Control (%) 32 days” value (Bilderdykia convolvulus; Cmpd A 25.00 g/ha alone) was 30%. For the same molecule, the “Actual Control (%) 32 days” value (Bilderdykia convolvulus; Cmpd A 50.00 g/ha alone) was 53%, the “Actual Control 19 days after treatment (%)” value (from here on “Actual Control 19 days … (%)”) (Fumaria officinalis [1]; Cmpd A 3.125 g/ha alone) was 5% and the “Actual Control 19 days … (%)” value (Fumaria officinalis [1]; Cmpd A 6.25 g/ha alone) was 18%. The “Actual Control 19 days … (%)” value (Fumaria officinalis [1]; Cmpd A 12.50 g/ha alone) was 0%, the “Actual Control 19 days … (%)” value (Fumaria officinalis [1]; Cmpd A 25.00 g/ha alone) was 18% and the “Actual Control (%) 17 days after treatment” value (from here on “Actual Control (%) 17 days”) (Viola arvensis [2]; Cmpd A 6.25 g/ha alone) was 15%. The “Actual Control (%) 17 days” value (Viola arvensis [2]; Cmpd A 12.50 g/ha alone) was 36%, the “Actual Control (%) 17 days” value (Viola arvensis [2]; Cmpd A 25.00 g/ha alone) was 39% and the “Actual Control (%) 17 days” value (Viola arvensis [2]; Cmpd A 50.00 g/ha alone) was 50%. The “Actual Control (%) 12 days after treatment” value (from here on “Actual Control (%) 12 days”) (Lamium purpureum [3]; Cmpd A 6.25 g/ha alone) was 18%, the “Actual Control (%) 12 days” value (Lamium purpureum [3]; Cmpd A 12.50 g/ha alone) was 24% and the “Actual Control (%) 12 days” value (Lamium purpureum [3]; Cmpd A 25.00 g/ha alone) was 25%. The “Actual Control (%) 12 days” value (Lamium purpureum [3]; Cmpd A 50.00 g/ha alone) was 23%, the “Actual Control 19 days … (%)” value (Chenopodium album; Cmpd A 3.125 g/ha alone) was 47% and the “Actual Control 19 days … (%)” value (Chenopodium album; Cmpd A 6.25 g/ha alone) was 60%. For the same molecule, the “Actual Control 19 days … (%)” value (Chenopodium album; Cmpd A 12.50 g/ha alone) was 55%, the “Actual Control 19 days … (%)” value (Chenopodium album; Cmpd A 25.00 g/ha alone) was 60% and the “Actual Reduction (%) 19 days after treatment” value (from here on “Actual Reduction (%) 19 days”) (Lamium purpureum [4]; Cmpd A 3.125 g/ha) was 4%. For the same molecule, the “Actual Reduction (%) 19 days” value (Lamium purpureum [4]; Cmpd A 6.25 g/ha) was 0%, the “Actual Reduction (%) 19 days” value (Lamium purpureum [4]; Cmpd A 12.5 g/ha) was 19% and the “Actual Reduction (%) 19 days” value (Lamium purpureum [4]; Cmpd A 25.0 g/ha) was 11%. The “Actual Control (%) 23 days after treatment” value (“Actual Control (%) 23 days” below) (Viola arvensis [5]; Cmpd A 6.25 g/ha) was 20%, the “Actual Control (%) 23 days” value (Viola arvensis [5]; Cmpd A 6.25 g/ha, Table XX) was 20% and the “Actual Control (%) 23 days” value (Viola arvensis [5]; Cmpd A 12.50 g/ha) was 50%. For the same molecule, the “Actual Control (%) 23 days” value (Viola arvensis [5]; Cmpd A 12.50 g/ha, Table XX) was 50%, the “Actual Control (%) 23 days” value (Viola arvensis [5]; Cmpd A 25.00 g/ha) was 52% and the “Actual Control (%) 23 days” value (Viola arvensis [5]; Cmpd A 25.00 g/ha, Table XX) was 52%. The “Actual Control (%) 23 days” value (Viola arvensis [5]; Cmpd A 50.00 g/ha) was 60%, the “Actual Control (%) 23 days” value (Viola arvensis [5]; Cmpd A 50.00 g/ha, Table XX) was 60% and the “Actual Control (%) 17 days” value (Matricaria inodora; Cmpd A 6.25 g/ha) was 7%. The “Actual Control (%) 17 days” value (Matricaria inodora; Cmpd A 12.50 g/ha) was 32%, the “Actual Control (%) 17 days” value (Matricaria inodora; Cmpd A 25.00 g/ha) was 75% and the “Actual Control (%) 17 days” value (Matricaria inodora; Cmpd A 50.00 g/ha) was 72%. For the same molecule, the “Actual Control (%) 19 days after treatment” value (“Actual Control (%) 19 days” for short) (Galium aparine; Cmpd A 3.125 g/ha alone) was 0%, the “Actual Control (%) 19 days” value (Galium aparine; Cmpd A 6.25 g/ha alone) was 0% and the “Actual Control (%) 19 days” value (Galium aparine; Cmpd A 12.5 g/ha alone) was 0%. The “Actual Control (%) 19 days” value (Galium aparine; Cmpd A 25.0 g/ha alone) was 0%, the “Actual Control (%) 19 days” value (Veronica persica; Cmpd A 3.125 g/ha alone) was 10% and the “Actual Control (%) 19 days” value (Veronica persica; Cmpd A 6.25 g/ha alone) was 20%. For the same molecule, the “Actual Control (%) 19 days” value (Veronica persica; Cmpd A 12.5 g/ha alone) was 28%, the “Actual Control (%) 19 days” value (Veronica persica; Cmpd A 25.0 g/ha alone) was 30% and the “Actual Control (%) 19 days” value (Viola arvensis [6]; Cmpd A 3.125 g/ha alone) was 22%. For the same molecule, the “Actual Control (%) 19 days” value (Viola arvensis [6]; Cmpd A 6.25 g/ha alone) was 12%, the “Actual Control (%) 19 days” value (Viola arvensis [6]; Cmpd A 12.5 g/ha alone) was 55% and the “Actual Control (%) 19 days” value (Viola arvensis [6]; Cmpd A 25.0 g/ha alone) was 72%. The “Actual Control 28 days after treatment (%)” value (Fumaria officinalis [7]; Cmpd A 10.0 g/ha alone) was 0.0% and the “Actual Control 28 days after treatment (%)” value (Fumaria officinalis [7]; Cmpd A 20.0 g/ha alone) was 15.0%.

From patent EP0512684B1, “Synergistic herbicidal compositions” (DOWELANCO, priority 1991, dated 1992)
